Results taken from US7935670B2, “Hepatitis C virus inhibitors” (Bristol-Myers Squibb Company, priority 2006, dated 2011).

Assays:
Format in all cases: biochemical
[1] = system: human pancreatic chymotrypsin; experiment: Specificity assay, chymotrypsin; conditions: 2 h enzyme-inhibitor pre-incubation
Description: (§1) The specificities of compounds of the present disclosure were determined against a variety of serine proteases: human neutrophil elastase (HNE), porcine pancreatic elastase (PPE) and human pancreatic chymotrypsin and one cysteine protease: human liver cathepsin B. In all cases a 96-well plate format protocol using colorimetric p-nitroaniline (pNA) substrate specific for each enzyme was used as described previously (PCT Patent Application No. WO 00/09543) with some modifications to the serine protease assays. All enzymes were purchased from Sigma while the substrates were from Bachem.
(§2) Each assay included a 2 h enzyme-inhibitor pre-incubation at room temperature followed by addition of substrate and hydrolysis to ˜30% conversion as measured on a Spectramax Pro microplate reader. Compound concentrations varied from 100 to 0.4 μM depending on their potency.
(§3) 50 mM Tris(hydroxymethyl)aminomethane hydrochloride (Tris-HCl) pH 8, 0.5 M Sodium Sulfate (Na2SO4), 50 mM NaCl, 0.1 mM EDTA, 3% DMSO, 0.01% Tween-20 with:
(§4) 133 μM succ-AAA-pNA and 20 nM HNE or 8 nM PPE; 100 μM succ-AAPF-pNA and […] Chymotrypsin.
(§5) The percentage of inhibition was calculated using the formula: [1−((UVinh−UVblank)/(UVctl−UVblank))]×100
(§6) A non-linear curve fit was applied to the inhibition-concentration data, and the 50% effective concentration (IC50) was calculated by the use of Excel Xl-fit software.

human liver cathepsin B = molecular target: T1, human liver cathepsin B (Homo sapiens, UniProt P07858); experiment: Specificity assay, cathepsin B; conditions: 2 h enzyme-inhibitor pre-incubation
T1 construct: purchased Sigma; host or cells: human liver (by name)
Description: as §1, §2
100 mM NaHPO4 (Sodium Hydrogen Phosphate) pH 6, 0.1 mM EDTA, 3% DMSO, 1 mM TCEP (Tris(2-carboxyethyl)phosphine hydrochloride), 0.01% Tween-20, 30 μM Z-FR-pNA and 5 nM Cathepsin B (enzyme stock activated in buffer containing 20 mM TCEP before use).
as §5, §6

[2] = molecular target: T2, porcine pancreatic elastase (PPE) (Sus scrofa, UniProt P00772); experiment: Specificity assay, porcine pancreatic elastase; conditions: 2 h enzyme-inhibitor pre-incubation
T2 construct: purchased Sigma
Description: as §1, §2, §3, §4, §5, §6

[3] = molecular target: T3, human neutrophil elastase (HNE) (Homo sapiens, UniProt P08246); experiment: Specificity assay, human neutrophil elastase; conditions: 2 h enzyme-inhibitor pre-incubation; read-out: HLE activity (IC50) in the specificity assay
T3 construct: purchased Sigma
T3 sequence (P08246 30-267): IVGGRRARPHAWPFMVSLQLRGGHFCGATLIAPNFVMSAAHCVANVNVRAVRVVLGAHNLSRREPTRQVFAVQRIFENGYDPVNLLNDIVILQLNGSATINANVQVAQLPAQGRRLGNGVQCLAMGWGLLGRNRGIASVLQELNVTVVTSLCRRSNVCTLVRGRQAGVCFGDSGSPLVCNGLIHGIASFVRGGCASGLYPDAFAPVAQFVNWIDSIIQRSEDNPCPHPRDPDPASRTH
Description: as §1, §2, §3, §4, §5, §6

T2 sequence (P00772 27-266): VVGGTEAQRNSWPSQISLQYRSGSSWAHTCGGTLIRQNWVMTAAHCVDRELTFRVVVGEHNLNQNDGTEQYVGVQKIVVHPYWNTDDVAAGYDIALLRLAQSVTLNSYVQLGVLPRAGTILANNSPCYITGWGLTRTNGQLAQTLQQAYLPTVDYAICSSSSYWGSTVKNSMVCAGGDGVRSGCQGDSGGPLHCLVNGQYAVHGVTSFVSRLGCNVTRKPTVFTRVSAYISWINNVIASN

Question: How did the IC50 [1] turn out when C=C[C@@H]1C[C@]1(NC(=O)[C@@H]1C[C@@H](OC(=O)c2ccccc2)CN1C(=O)[C@@H](NC(=O)OC(C)(C)C)C(C)(C)C)C(=O)NS(=O)(=O)C1CC1 [Compound 1] was run?
Answer: > 200 µM

Question: And the IC50 (human liver cathepsin B)?
Answer: > 50 µM

Question: What about the IC50 [2] of the same molecule?
Answer: > 200 µM

Question: What about the IC50 [3] of the same molecule?
Answer: > 200 µM
